Experiments:
[1] = tested on: benzodiazepine receptor; assay: In vivo inhibition of 3H-flunitrazepam binding to the benzodiazepine receptor in living brain (ED50); settings: mice, subcutaneous, 3H-flunitrazepam i.v. 15 min later
[2] = molecular target: benzodiazepine receptor; assay: Displacement of 3H-flunitrazepam from benzodiazepine receptors in vitro (IC50); assay type: binding; settings: rat forebrain, 3H-flunitrazepam 1.0 nM, 0° C.
Source text: For example, it is known that certain locations in the central nervous system of vertebrates have a high specific affinity for bonding 1,4 and 1,5-benzodiazepines. (See, e.g., R. F. Squires & C. Braestrup, Nature [London] 266 [1977], 734, which is incorporated by reference herein). These locations are called benzodiazepine receptors.
This displacement activity of the compounds of this invention has been determined by measuring IC50 and ED50 values. The IC50 value is the concentration which causes a 50% displacement of the specific binding of ^3 H-flunitrazepam (1.0 nM, 0° C.) in samples with a total volume of 0.55 ml of a suspension of brain membrane, e.g., from rats.
The displacement test is carried out as follows:
0.5 ml of a suspension of untreated rat forebrain in 25 mM KH2 PO4, at a pH of 7.1 (5-10 mg of tissue per sample) were incubated with ^3 H-diazepam (specific activity 14.4 Ci/millimole, 1.9 nM) or ^3 H-flunitrazepam (specific activity 87 Ci/millimole, 1.0 nM) for 40-60 minutes at 0° C. After incubation, the suspension is filtered through a glass frit, the residue is washed twice with a cold buffer solution and the radioactivity is measured by scintillation counting.
The test is then repeated, except prior to addition of the radioactively marked benzodiazepine, a given amount or an excess amount of the compound whose displacement activity is to be ascertained, is added. The IC50 value can then be computed from the test results obtained.

Structure (SMILES): CCOC(=O)CC(=O)c1cc2c(cn1)[nH]c1ccccc12 [COCH2 COOC2 H5, 3-carboethoxy-acetyl-beta-carboline]
- In vivo ED50, inhibition of 3H flunitrazepam binding (Affinity for the benzodiazepine receptor) [1]: > 250 mg/kg

Structure (SMILES): O=CNC(=O)c1cc2c(cn1)[nH]c1ccccc12 [CONHCHO, beta-carboline-3-(N-formylcarboxamide)]
- In vivo ED50, inhibition of 3H flunitrazepam binding (Affinity for the benzodiazepine receptor) [1]: 197 mg/kg
- In vitro IC50, inhibition of 3H flunitrazepam binding (Affinity for the benzodiazepine receptor) [2]: 0.034 µg/mL

Structure (SMILES): C(=NNc1ccccc1)c1cc2c(cn1)[nH]c1ccccc12 [CHNNHC6 H5, beta-carboline-3-carboxaldehyde-phenylhydrazone]
- In vivo ED50, inhibition of 3H flunitrazepam binding (Affinity for the benzodiazepine receptor) [1]: > 250 mg/kg

Structure (SMILES): O=C1CC(c2cc3c(cn2)[nH]c2ccccc23)=NN1
- In vivo ED50, inhibition of 3H flunitrazepam binding (Affinity for the benzodiazepine receptor) [1]: > 250 mg/kg
- In vitro IC50, inhibition of 3H flunitrazepam binding (Affinity for the benzodiazepine receptor) [2]: > 0.1 µg/mL

Structure (SMILES): C(=NN1CCOCC1)c1cc2c(cn1)[nH]c1ccccc12 [drawing 28]
- In vivo ED50, inhibition of 3H flunitrazepam binding (Affinity for the benzodiazepine receptor) [1]: > 250 mg/kg
- In vitro IC50, inhibition of 3H flunitrazepam binding (Affinity for the benzodiazepine receptor) [2]: > 0.1 µg/mL

Structure (SMILES): CNN=Cc1cc2c(cn1)[nH]c1ccccc12 [CHNNHCH3, beta-carboline-3-carboxaldehyde-methylhydrazone]
- In vivo ED50, inhibition of 3H flunitrazepam binding (Affinity for the benzodiazepine receptor) [1]: 92 mg/kg
- In vitro IC50, inhibition of 3H flunitrazepam binding (Affinity for the benzodiazepine receptor) [2]: 0.149 µg/mL

Structure (SMILES): CNC(=O)CC(=O)c1cc2c(cn1)[nH]c1ccccc12 [COCH2 CONHCH3]
- In vivo ED50, inhibition of 3H flunitrazepam binding (Affinity for the benzodiazepine receptor) [1]: > 250 mg/kg
- In vitro IC50, inhibition of 3H flunitrazepam binding (Affinity for the benzodiazepine receptor) [2]: > 0.1 µg/mL

Structure (SMILES): C(=Nn1cnnc1)c1cc2c(cn1)[nH]c1ccccc12
- In vivo ED50, inhibition of 3H flunitrazepam binding (Affinity for the benzodiazepine receptor) [1]: > 250 mg/kg
- In vitro IC50, inhibition of 3H flunitrazepam binding (Affinity for the benzodiazepine receptor) [2]: > 0.1 µg/mL

Structure (SMILES): C(=NN1CCCC1)c1cc2c(cn1)[nH]c1ccccc12 [drawing 31]
- In vivo ED50, inhibition of 3H flunitrazepam binding (Affinity for the benzodiazepine receptor) [1]: 49 mg/kg
- In vitro IC50, inhibition of 3H flunitrazepam binding (Affinity for the benzodiazepine receptor) [2]: > 0.1 µg/mL

Structure (SMILES): C(=NN1CCCCC1)c1cc2c(cn1)[nH]c1ccccc12 [drawing 27]
- In vivo ED50, inhibition of 3H flunitrazepam binding (Affinity for the benzodiazepine receptor) [1]: > 250 mg/kg
- In vitro IC50, inhibition of 3H flunitrazepam binding (Affinity for the benzodiazepine receptor) [2]: > 0.1 µg/mL

Structure (SMILES): CN(C)C=NC(=O)c1cc2c(cn1)[nH]c1ccccc12
- In vivo ED50, inhibition of 3H flunitrazepam binding (Affinity for the benzodiazepine receptor) [1]: > 250 mg/kg
- In vitro IC50, inhibition of 3H flunitrazepam binding (Affinity for the benzodiazepine receptor) [2]: 0.09 µg/mL

Structure (SMILES): Cc1nc(-c2cc3c(cn2)[nH]c2ccccc23)n(C)n1
- In vivo ED50, inhibition of 3H flunitrazepam binding (Affinity for the benzodiazepine receptor) [1]: > 300 mg/kg
- In vitro IC50, inhibition of 3H flunitrazepam binding (Affinity for the benzodiazepine receptor) [2]: 0.179 µg/mL

Structure (SMILES): CCCCC(=NO)c1cc2c(cn1)[nH]c1ccccc12
- In vivo ED50, inhibition of 3H flunitrazepam binding (Affinity for the benzodiazepine receptor) [1]: > 250 mg/kg
- In vitro IC50, inhibition of 3H flunitrazepam binding (Affinity for the benzodiazepine receptor) [2]: 0.468 µg/mL

Structure (SMILES): CC(=O)ON=Cc1cc2c(cn1)[nH]c1ccccc12 [CHNOCOCH3]
- In vivo ED50, inhibition of 3H flunitrazepam binding (Affinity for the benzodiazepine receptor) [1]: > 250 mg/kg
- In vitro IC50, inhibition of 3H flunitrazepam binding (Affinity for the benzodiazepine receptor) [2]: 0.169 µg/mL

Structure (SMILES): O=C(c1ccccc1)c1cc2c(cn1)[nH]c1ccccc12 [COC6 H5, 3-benzoyl-beta-carboline]
- In vivo ED50, inhibition of 3H flunitrazepam binding (Affinity for the benzodiazepine receptor) [1]: 223 mg/kg
- In vitro IC50, inhibition of 3H flunitrazepam binding (Affinity for the benzodiazepine receptor) [2]: 0.00427 µg/mL

Structure (SMILES): CN1N=C(c2cc3c(cn2)[nH]c2ccccc23)CC1=O
- In vivo ED50, inhibition of 3H flunitrazepam binding (Affinity for the benzodiazepine receptor) [1]: > 250 mg/kg
- In vitro IC50, inhibition of 3H flunitrazepam binding (Affinity for the benzodiazepine receptor) [2]: > 0.4 µg/mL

Structure (SMILES): CN1CCN(N=Cc2cc3c(cn2)[nH]c2ccccc23)CC1
- In vivo ED50, inhibition of 3H flunitrazepam binding (Affinity for the benzodiazepine receptor) [1]: 210 mg/kg
- In vitro IC50, inhibition of 3H flunitrazepam binding (Affinity for the benzodiazepine receptor) [2]: 0.1 µg/mL

Structure (SMILES): CCN(CC)N=Cc1cc2c(cn1)[nH]c1ccccc12 [drawing 23]
- In vivo ED50, inhibition of 3H flunitrazepam binding (Affinity for the benzodiazepine receptor) [1]: 72 mg/kg
- In vitro IC50, inhibition of 3H flunitrazepam binding (Affinity for the benzodiazepine receptor) [2]: > 0.1 µg/mL

Structure (SMILES): c1ccc2c(c1)[nH]c1cnc(-c3nc[nH]n3)cc12
- In vivo ED50, inhibition of 3H flunitrazepam binding (Affinity for the benzodiazepine receptor) [1]: 26 mg/kg
- In vitro IC50, inhibition of 3H flunitrazepam binding (Affinity for the benzodiazepine receptor) [2]: 0.104 µg/mL

Structure (SMILES): Cc1noc(-c2cc3c(cn2)[nH]c2ccccc23)n1
- In vivo ED50, inhibition of 3H flunitrazepam binding (Affinity for the benzodiazepine receptor) [1]: 15 mg/kg
- In vitro IC50, inhibition of 3H flunitrazepam binding (Affinity for the benzodiazepine receptor) [2]: 0.00056 µg/mL

Structure (SMILES): CN(C)S(=O)(=O)c1ccc2[nH]c3cnc(C=O)cc3c2c1 [CHO, drawing 30, 6-dimethylsulfamoyl-beta-carboline-3-carboxaldehyde]
- In vivo ED50, inhibition of 3H flunitrazepam binding (Affinity for the benzodiazepine receptor) [1]: > 300 mg/kg
- In vitro IC50, inhibition of 3H flunitrazepam binding (Affinity for the benzodiazepine receptor) [2]: > 0.1 µg/mL

Structure (SMILES): Cc1n[nH]c(-c2cc3c(cn2)[nH]c2ccccc23)n1
- In vivo ED50, inhibition of 3H flunitrazepam binding (Affinity for the benzodiazepine receptor) [1]: 139 mg/kg
- In vitro IC50, inhibition of 3H flunitrazepam binding (Affinity for the benzodiazepine receptor) [2]: 0.096 µg/mL

Structure (SMILES): CONC=NC(=O)c1cc2c(cn1)[nH]c1ccccc12
- In vivo ED50, inhibition of 3H flunitrazepam binding (Affinity for the benzodiazepine receptor) [1]: > 250 mg/kg
- In vitro IC50, inhibition of 3H flunitrazepam binding (Affinity for the benzodiazepine receptor) [2]: 0.1 µg/mL

Structure (SMILES): CC(=NN(C)C)c1cc2c(cn1)[nH]c1ccccc12 [drawing 25]
- In vivo ED50, inhibition of 3H flunitrazepam binding (Affinity for the benzodiazepine receptor) [1]: 119 mg/kg
- In vitro IC50, inhibition of 3H flunitrazepam binding (Affinity for the benzodiazepine receptor) [2]: > 0.1 µg/mL

Structure (SMILES): CN(C)N=Cc1cc2c(cn1)[nH]c1ccc(S(=O)(=O)N(C)C)cc12 [drawing 32]
- In vivo ED50, inhibition of 3H flunitrazepam binding (Affinity for the benzodiazepine receptor) [1]: 35 mg/kg
- In vitro IC50, inhibition of 3H flunitrazepam binding (Affinity for the benzodiazepine receptor) [2]: 0.004 µg/mL

Structure (SMILES): O=C1CC(c2cc3c(cn2)[nH]c2ccccc23)=NO1
- In vivo ED50, inhibition of 3H flunitrazepam binding (Affinity for the benzodiazepine receptor) [1]: 100 mg/kg
- In vitro IC50, inhibition of 3H flunitrazepam binding (Affinity for the benzodiazepine receptor) [2]: 0.156 µg/mL

Structure (SMILES): CCCCC(=O)c1cc2c(cn1)[nH]c1ccccc12 [COCH2 CH2 CH2 CH3, 3-pentanoyl-beta-carboline]
- In vivo ED50, inhibition of 3H flunitrazepam binding (Affinity for the benzodiazepine receptor) [1]: 144 mg/kg
- In vitro IC50, inhibition of 3H flunitrazepam binding (Affinity for the benzodiazepine receptor) [2]: 0.02 µg/mL

Structure (SMILES): Cn1cnc(-c2cc3c(cn2)[nH]c2ccccc23)n1
- In vivo ED50, inhibition of 3H flunitrazepam binding (Affinity for the benzodiazepine receptor) [1]: 145 mg/kg
- In vitro IC50, inhibition of 3H flunitrazepam binding (Affinity for the benzodiazepine receptor) [2]: > 0.4 µg/mL

Structure (SMILES): CC(=NO)c1cc2c(cn1)[nH]c1ccccc12 [drawing 11]
- In vivo ED50, inhibition of 3H flunitrazepam binding (Affinity for the benzodiazepine receptor) [1]: 186 mg/kg
- In vitro IC50, inhibition of 3H flunitrazepam binding (Affinity for the benzodiazepine receptor) [2]: > 0.1 µg/mL

Structure (SMILES): O=C(N=CNO)c1cc2c(cn1)[nH]c1ccccc12 [CONCHNHOH, N-[(hydroxyamino)methylene]-beta-carboline-carboxamide]
- In vivo ED50, inhibition of 3H flunitrazepam binding (Affinity for the benzodiazepine receptor) [1]: 93 mg/kg

Structure (SMILES): C(=NOCc1ccccc1)c1cc2c(cn1)[nH]c1ccccc12 [CHNOCH2 C6 H5, beta-carboline-3-carboxaldehyde-oxime-benzylether]
- In vivo ED50, inhibition of 3H flunitrazepam binding (Affinity for the benzodiazepine receptor) [1]: > 250 mg/kg
- In vitro IC50, inhibition of 3H flunitrazepam binding (Affinity for the benzodiazepine receptor) [2]: 0.0525 µg/mL

Structure (SMILES): CN(C)S(=O)(=O)c1ccc2[nH]c3cnc(C=NO)cc3c2c1 [CHNOH, drawing 36]
- In vivo ED50, inhibition of 3H flunitrazepam binding (Affinity for the benzodiazepine receptor) [1]: 300 mg/kg
- In vitro IC50, inhibition of 3H flunitrazepam binding (Affinity for the benzodiazepine receptor) [2]: 0.0017 µg/mL

Structure (SMILES): NC(=O)NN=Cc1cc2c(cn1)[nH]c1ccccc12 [CHNNHCONH2, beta-carboline-3-carboxaldehyde-semicarbazone]
- In vivo ED50, inhibition of 3H flunitrazepam binding (Affinity for the benzodiazepine receptor) [1]: > 250 mg/kg
- In vitro IC50, inhibition of 3H flunitrazepam binding (Affinity for the benzodiazepine receptor) [2]: > 0.1 µg/mL

Structure (SMILES): CN(C)N=Cc1cc2c(cn1)[nH]c1ccccc12 [drawing 13]
- In vivo ED50, inhibition of 3H flunitrazepam binding (Affinity for the benzodiazepine receptor) [1]: 54 mg/kg
- In vitro IC50, inhibition of 3H flunitrazepam binding (Affinity for the benzodiazepine receptor) [2]: 0.0417 µg/mL

Structure (SMILES): CN(C)S(=O)(=O)c1ccc2[nH]c3cnc(C=NN4CCCC4)cc3c2c1 [drawing 34]
- In vivo ED50, inhibition of 3H flunitrazepam binding (Affinity for the benzodiazepine receptor) [1]: 210 mg/kg
- In vitro IC50, inhibition of 3H flunitrazepam binding (Affinity for the benzodiazepine receptor) [2]: 0.008 µg/mL

Structure (SMILES): ON=Cc1cc2c(cn1)[nH]c1ccccc12 [CHNOH, beta-carboline-3-carboxaldehyde-oxime]
- In vivo ED50, inhibition of 3H flunitrazepam binding (Affinity for the benzodiazepine receptor) [1]: 19 mg/kg
- In vitro IC50, inhibition of 3H flunitrazepam binding (Affinity for the benzodiazepine receptor) [2]: 0.0087 µg/mL
